Assay results reported in patent US20210283211A1, “COMPOSITIONS AND METHODS OF ALLEVIATING RESISTANCE TO CHEMOTHERAPY” (CITY OF HOPE, priority 2019, published 2021).
“Also recorded” adds a separate entry of the source.

How the values were obtained:
Type in all cases: cell-based, human
H1993 cells = experiment: Carfilzomib dose response on cell proliferation, IC50 determination; settings: increasing dose
Description: (§1) Cell proliferation and apoptosis assay. Cell proliferation assays were performed using cell lines stably transfected with NucLight Red Lentivirus (Essen Bioscience) to accurately visualize and count the nucleus of a single cell. Cells were seeded on a 96-well plate and allowed to adhere for 24 hours. Test compounds were added at indicated concentrations. Caspase-3/7 Green Apoptosis Reagent (Essen Bioscience) was also added as a green fluorescent indicator of caspase-3/7-mediated apoptotic activity. To monitor cell proliferation and apoptosis over time, the plate was placed in the IncuCyte S3 Live-Cell Analysis System (Essen BioScience) and images were acquired every 2 hours. Data analysis was generated by the IncuCyte software using a red fluorescence mask to accurately count each cell nucleus and a green fluorescence mask to measure apoptosis over time.
(§2) Then a sublethal dose was used to determine the effect of these compounds on ITGB4 and PXN expression and caspase activity (FIG. 9I). […] These eleven compounds were further screened in the cisplatin-resistant cell line H2009. […] Further, carfilzomib was tested in another cisplatin-resistant cell line H1993.

[1] = tested on: patient-derived organoids (lung cancer); experiment: Patient tumor tissue-derived organoid assay (area, caspase activity)
Description: Next, drug efficacy in patient tumor tissue-derived organoids was determined. Approximately 5000 cells/sample from 2 surgical samples were seeded in an ultra-low attachment plate and incubated at 37° C. […] In one of the patient-derived organoids, cisplatin treatment alone decreased spheroid area and increased apoptosis as measured by green intensity (FIG. 11D). […] Indeed, by 72 hours carfilzomib at a concentration of 2.5 μM induced 5-fold increase in caspase activity compared to cisplatin alone but there was not much change in the spheroid area (FIGS. 11E-11F). Thus, no additive effect was apparent in this patient sample. […] The efficacy of ITGB4 antibody in disrupting organoid growth and inducing apoptosis was also tested.

H2009 cells = experiment: IncuCyte cell proliferation and caspase-3/7 apoptosis assay; settings: 80 nM, 72 hours, among eleven compounds
Description: as §1
To determine whether the inhibition in cell proliferation associated with ITGB4 knockdown was due to enhanced apoptosis or reduced cell division (cytostatic), the Essen Bioscience Caspase-3/7 Green apoptosis assay in live cells was conducted. The NucView™[…], a DNA intercalating dye was used to enable quantification of apoptosis over time. The dye is impermeable and non-toxic to cells but once the cell membrane is permeabilized by caspase-3/7, the dye enters the cell and gets activated due to change in pH leading to the generation of green fluorescence that is then detected in real time and quantified using the IncuCyte System (FIG. 4B).
To address this, H1993 and H2009 cells were treated with cisplatin for 3 days and the changes were analyzed by immunoblotting. […] Next, H1993 and H2009 cells were transiently transfected with ITGB4 siRNA and 24 hours post-transfection they were treated with 10 μM cisplatin and cell proliferation and caspase activity were determined. […] However, in response to cisplatin in ITGB4 knockdown cells, the fold change dipped to <1, alluding to a cytotoxic effect (FIG. 4C). […] However, cell death was not due to caspase activation but appeared to be due to cell bursting which is seen in anoikis (FIGS. 3K and 3L).

[2] = tested on: ITGB4 and PXN expression, γH2AX in H358 cells; experiment: Immunoblot after sublethal dose; settings: 72 hours
Description: (§3) West blotting: Cell lysates were prepared with 1×RIPA buffer (MilliporeSigma) and denatured in 1× reducing sample buffer at 95° C. for 5 minutes. Protein samples (15 μg) were run on 4-15% TGX gels (Bio-Rad, Hercules, Calif., USA) and transferred onto nitrocellulose membranes (Bio-Rad). Blots were blocked with 5% non-fat milk in TBS-T for 1 hour at room temperature and probed with primary antibody diluted in 2.5% BSA in TBS-T overnight at 4° C. After three washes with TBS-T, blots were incubated with HRP-conjugated secondary antibodies for 2 hours at room temperature. After three more washes, bands of interest were visualized via chemiluminescence using Western Bright ECL HRP substrate (Advansta, Menlo Park, Calif., USA) and imaged with the ChemiDoc MP imager (Bio-Rad).
as §2

[3] = tested on: ITGB4, PXN, FAK, MET, γH2AX, cleaved PARP in H1993 cells; experiment: Immunoblot; settings: 50-200 nM carfilzomib
Description: as §3, §2

[4] = tested on: ITGB4, PXN, FAK, p27, phospho-Rb, γH2AX, cleaved PARP in H2009 cells; experiment: Immunoblot; settings: sublethal dose
Description: as §3, §2

[5] = tested on: ITGB4, PXN, USP1, VDAC1, CD133 in patient-derived organoids; experiment: Immunoblot of treated patient-derived organoids; settings: 48 hours, printed 2.5 mM and 5 mM

## CC(C)C[C@H](NC(=O)[C@H](CCc1ccccc1)NC(=O)CN1CCOCC1)C(=O)N[C@@H](Cc1ccccc1)C(=O)N[C@@H](CC(C)C)C(=O)[C@@]1(C)CO1 [Carfilzomib]
H1993 cells; H1993 cells
  IC50: 1770 nM
H1993 cells; Homo sapiens, NCI-H1993, H1993 cells
  IC50: 1700 nM
[1]; patient LCSC2
  spheroid area: decreased the spheroid area
[1]; patient LCSC2, both drugs combined
  caspase activity, combination with cisplatin: enhanced
[1]; patient LCSC4, carfilzomib and cisplatin combined
  apoptosis, combination with cisplatin: did not have an additive effect
[1]; patient LCSC4, cisplatin 5 μM alone, carfilzomib 2.5 μM alone
  organoid size: decreased the size of the organoid
[1]; patient LCSC4 organoids, 2.5 μM, by 72 hours
  induction of apoptosis (caspase activity) compared to cisplatin alone: 5 fold
[1]; second patient (LCSC2) organoids
  increase in apoptosis (caspase activity): ~50 fold
H2009 cells
  inhibitory effect in cell proliferation: greatest inhibitory effect in cell proliferation
[2]
  apoptosis, DNA damage (γH2AX) and ITGB4 expression: induced apoptosis and caused DNA damage
[3]
  protein expression by immunoblot: reduction in ITGB4 expression and increase in cleaved PARP and γH2AX
[4]
  protein expression by immunoblot: reduced ITGB4 and PXN expression; also recorded: reduced expression of ITGB4 and phospho-Rb (S807/811) and increased expression of p27, γH2AX, and cleaved PARP
[5]
  protein expression by immunoblot: decrease in the expression of ITGB4, USP1, PXN and VDAC1; also recorded: decreased expression of ITGB4, PXN, USP1, VDAC1 and CD133
